Measurements: ChEMBL document CHEMBL5614415, “Recent advances and challenges of revolutionizing drug-resistant tuberculosis treatment” (Eur J Med Chem, 2024)
Values after ≈ are worked out from the molar mass of the structure shown.

Key:
[1] = tested on: Mycobacterium tuberculosis; assay: Antimycobacterial activity against Mycobacterium tuberculosis; type: functional
[2] = tested on: Mycobacterium tuberculosis; assay: Antibacterial activity against Mycobacterium tuberculosis H37Rv assessed as reduction in bacterial growth measured after 7 days by broth micro-dilution method; type: functional; conditions: 168 h, time 7 day
[3] = tested on: Salmonella typhimurium; assay: Antibacterial activity against Salmonella typhimurium DT104 assessed as inhibition of bacterial growth incubated for 18 hrs by CLSI protocol based microbroth dilution method; type: functional, Salmonella enterica subsp. enterica serovar Typhimurium; conditions: Salmonella enterica
[4] = tested on: Mycobacterium tuberculosis; assay: Antimicrobial activity against Mycobacterium tuberculosis H37Rv ATCC 27294 assessed as inhibition of bacterial growth incubated for […] by broth dilution method; type: functional; conditions: time lower 18 hrs
[5] = tested on: Mycobacterium tuberculosis; assay: Antimycobacterial activity against Mycobacterium tuberculosis H37Rv assessed as reduction in bacterial cell growth by resazurin reduction method; type: functional
[6] = tested on: Mycobacterium tuberculosis; assay: Antimycobacterial activity against Mycobacterium tuberculosis […] assessed as reduction in bacterial growth; type: functional
[7] = tested on: Mycobacterium tuberculosis; assay: Antibacterial activity against Mycobacterium tuberculosis H37Rv; type: functional
[8] = tested on: Mycobacterium tuberculosis; assay: Antibacterial activity against wild type Mycobacterium tuberculosis H37Rv infected in BALB/c mouse assessed as log reduction in colony forming units at 20 mg/kg; type: functional
[9] = tested on: Mycolicibacterium smegmatis; assay: Antimicrobial activity against Mycobacterium smegmatis ATCC 700084 assessed as bacterial growth inhibition; type: functional
[10] = tested on: Mycobacterium avium; assay: Antimycobacterial activity against Mycobacterium avium assessed as bacterial growth inhibtion; type: functional
[11] = tested on: Mycobacterium tuberculosis; assay: Antimycobacterial activity against Mycobacterium tuberculosis H37Rv ATCC 27294 assessed as reduction in bacterial cell growth; type: functional
[12] = tested on: Staphylococcus aureus; assay: Antibacterial activity against Staphylococcus aureus assessed as reduction in microbial growth by CLSI protocol based broth micro-dilution method; type: functional
[13] = tested on: Mycobacterium tuberculosis; assay: Antitubercular activity against Mycobacterium tuberculosis H37Ra assessed as inhibition of bacterial growth incubated for 7 days by Microdilution Alamar Blue assay; type: functional; conditions: 168 h, time 7 day
[14] = target: Cytochrome P450 2C9 (Homo sapiens, UniProt P11712); assay: Inhibition of CYP2C9 (unknown origin); type: ADME
Chain of Cytochrome P450 2C9 (P11712 whole entry): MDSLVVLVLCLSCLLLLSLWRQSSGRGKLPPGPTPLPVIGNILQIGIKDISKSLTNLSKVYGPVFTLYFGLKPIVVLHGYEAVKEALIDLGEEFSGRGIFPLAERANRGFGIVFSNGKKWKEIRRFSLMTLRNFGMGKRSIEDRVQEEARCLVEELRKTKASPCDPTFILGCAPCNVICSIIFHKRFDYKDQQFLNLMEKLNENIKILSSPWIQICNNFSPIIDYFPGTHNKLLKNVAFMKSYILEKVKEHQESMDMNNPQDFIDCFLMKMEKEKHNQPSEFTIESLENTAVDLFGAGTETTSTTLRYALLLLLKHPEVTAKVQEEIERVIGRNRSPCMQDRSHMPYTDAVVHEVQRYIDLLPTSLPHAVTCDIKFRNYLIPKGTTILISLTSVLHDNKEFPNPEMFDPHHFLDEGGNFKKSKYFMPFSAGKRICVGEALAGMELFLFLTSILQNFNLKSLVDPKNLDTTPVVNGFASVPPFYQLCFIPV

[15] = tested on: Mycobacterium tuberculosis; assay: Antimycobacterial activity against Mycobacterium tuberculosis H37Rv assessed as reduction in bacterial growth after 7 days by resazurin based fluorescence assay; type: functional; conditions: 168 h, time 7 day
[16] = tested on: Mycobacterium tuberculosis; assay: Antimycobacterial activity against Mycobacterium tuberculosis assessed as reduction in bacterial growth; type: functional
[17] = tested on: Mycobacterium tuberculosis; assay: Antimycobacterial activity against Mycobacterium tuberculosis assessed as bacterial growth inhibition; type: functional
[18] = tested on: Mycobacterium tuberculosis; assay: Antibacterial activity against Mycobacterium tuberculosis ATCC 35801 assessed as inhibition of bacterial growth incubated for 7 days by resazurin microtiter assay; type: functional; conditions: ATCC 35801, 168 h, time 7 day
[19] = tested on: Mycobacterium tuberculosis; assay: Antibacterial activity against Mycobacterium tuberculosis H37Rv assessed as bacterial growth inhibition by CLSI broth microdilution method; type: functional
[20] = tested on: Mycobacterium tuberculosis; assay: Antimycobacterial activity against Mycobacterium tuberculosis H37Rv ATCC 27294 assessed as reduction in bacterial cell growth by resazurin reduction method; type: functional
[21] = tested on: Mycolicibacterium smegmatis; assay: Antimycobacterial activity against Mycobacterium smegmatis mc2 155 assessed as reduction in bacterial cell growth by resazurin reduction method; type: functional

CN[C@@H]1[C@H](O)[C@H](NC)[C@H]2O[C@@]3(O)[C@H](NC(=O)Cc4ccc(F)cn4)C[C@@H](C)C[C@H]3O[C@@H]2[C@H]1O
MIC50 [1]: 0.8 µg/mL (≈ 1.71 µM)

OC1CCN(C2CCN(CC34CC5CC(CC(C5)C3)C4)CC2)CC1
MIC90 [2]: > 10 µg/mL

COc1c(N2CC3(CC3)[C@@](C)(N)C2)c(F)cc2c(=O)c(C(=O)O)cn(C3C[C@H]3F)c12 (some centres not stated)
MIC90 [3]: 0.06 µg/mL (≈ 0.143 µM)

c1cc2cc(-c3ccc4cc(-c5ccc6oc(C7=NCCN7)cc6c5)[nH]c4c3)[nH]c2cc1C1=NCCN1
MIC50 [4]: 0.02 µg/mL (≈ 0.0413 µM)

CC(=O)N1/C(=C/c2ccc(-c3ccccc3)cc2)C(=O)c2ccccc21
MIC99 [5]: 0.38 µg/mL (≈ 1.12 µM)

CC(=O)N1/C(=C/c2ccc(Br)cc2)C(=O)c2ccccc21
MIC99 [5]: 0.42 µg/mL (≈ 1.23 µM)

CCCCc1ccc(NC(=O)C2=CCN(C)[C@@H]([C@H](O[C@@H]3O[C@H](CN)[C@@H](O)[C@H]3O)[C@H]3O[C@@H](n4ccc(=O)[nH]c4=O)[C@H](O)[C@@H]3O)C(=O)N2C)cc1
MIC50 [6]: 3.13 µg/mL (≈ 4.54 µM)

O=[N+]([O-])c1cn2c(n1)OC[C@@H](OCc1ccc(OC(F)(F)F)cc1)C2 [PRETOMANID]
MIC50 [7]: 0.015 µg/mL (≈ 0.0418 µM)

CCOc1cc([C@](O)(CCN(C)C)[C@@H](c2cc3cc(Br)ccc3nc2OC)c2cccc(OC)c2F)cc(OC)n1
log(activity) [8]: 1.5

COc1cc([C@](O)(CCN(C)C)[C@@H](c2cc3cc(Br)ccc3nc2OC)c2cccc(OC)c2F)cc(OC)n1 [TBAJ-587]
log(activity) [8]: 4.5
MIC50 [9]: < 0.02 µg/mL
MIC50 [10]: 0.006 µg/mL (≈ 0.00976 µM)

CN1CCN(c2ccc(N3C[C@H](CO)OC3=O)cc2F)C=N1 [DELPAZOLID]
MIC50 [11]: 0.5 µg/mL (≈ 1.62 µM)
MIC50 [12]: 0.5 µg/mL

OCC1CCCN1CC1CCN(CC23CC4CC(CC(C4)C2)C3)CC1 (configuration not stated)
MIC90 [2]: > 10 µg/mL

COc1ncnc(Cn2cc(C(=O)NCCO)c3ncc(C)cc32)c1C [TBA-7371]
MIC50 [6]: 0.28 µg/mL (≈ 0.788 µM)

CC(=O)N1/C(=C/c2ccc(Oc3ccc(Cl)cc3)cc2)C(=O)c2cc(Cl)ccc21
MIC99 [5]: 0.13 µg/mL (≈ 0.306 µM)

COC(=O)c1ccsc1NC(=O)C1CCCN1 (configuration not stated)
MIC50 [13]: 0.8 µg/mL (≈ 3.15 µM)

CCOC(=O)NC(=O)c1ccsc1NC(=O)c1nc2cccnc2s1
IC50 [14]: 130 nM

COc1cc([C@](O)(CCN(C)C)[C@@H](c2cc3cc(Br)ccc3nc2OC)c2cc(OC)nc(OC)c2OC)cc(OC)n1 [TBAJ-876]
MIC50 [10]: 5 µg/mL (≈ 7.6 µM)

c1cc2cc(-c3ccc(-c4cc5ccc(C6=NCCN6)cc5[nH]4)cc3)[nH]c2cc1C1=NCCN1
MIC50 [4]: 0.04 µg/mL (≈ 0.09 µM)

CCOC(=O)NC(=O)c1ccsc1NC(=O)c1ccn2cnnc2c1
IC50 [14]: > 10000 nM

OC1CCN(CC2CCN(Cc3ccccc3)CC2)CC1
MIC90 [2]: 6.2 µg/mL (≈ 21.5 µM)

C(=C\c1cc2ccc(C3=NCCN3)cc2[nH]1)/c1cc2ccc(C3=NCCN3)cc2[nH]1
MIC50 [4]: 0.03 µg/mL (≈ 0.076 µM)

O=C(Nc1nc(-c2ccccn2)cs1)c1ccc(Cl)s1
MIC50 [15]: 0.25 µg/mL (≈ 0.777 µM)

CC(=O)N1/C(=C/c2ccc(Oc3ccc(Cl)cc3)cc2)C(=O)c2ccccc21
MIC99 [5]: 0.18 µg/mL (≈ 0.462 µM)

O=C1CCc2c(OC[C@]3(O)CCN(c4c(F)cc(Cl)cc4F)C[C@H]3O)ccc(F)c2N1 [QUABODEPISTAT]
MIC50 [1]: 0.00024 µg/mL (≈ 0.000525 µM)

O=C(OCc1ccccc1)c1ccsc1NC(=O)C1CCCN1 (configuration not stated)
MIC50 [13]: 1.3 µg/mL (≈ 3.93 µM)

COc1nc2ccc(Br)cc2cc1[C@@H](c1ccccc1)[C@@](O)(CCN(C)C)c1cccc2ccccc12 [BEDAQUILINE]
MIC50 [16]: 0.01 µg/mL (≈ 0.018 µM)
MIC50 [10]: 0.01 µg/mL (≈ 0.018 µM)

CC(=O)NC[C@H]1CN(c2ccc(N3CCOCC3)c(F)c2)C(=O)O1 [LINEZOLID]
MIC50 [12]: 0.3 µg/mL
MIC50 [17]: 0.3 µg/mL (≈ 0.889 µM)

CCNC(=O)Nc1nc2cc(-c3cnc(C(C)(C)O)nc3)c(F)c([C@H]3CCCO3)c2[nH]1
MIC50 [18]: 0.03 µg/mL (≈ 0.07 µM)

CC1(C)CCC(NC(=O)c2cc3c(Cl)cc(Cl)cc3[nH]2)CC1
MIC50 [19]: 0.005 µg/mL (≈ 0.0147 µM)

OC1CCN(CC2CCC(CNCc3ccccc3)CC2)CC1 (configuration not stated)
MIC90 [2]: > 12 µg/mL

CC(=O)NC[C@H]1CN(c2ccc(N3CCSCC3)c(F)c2)C(=O)O1 [SUTEZOLID]
MIC50 [12]: 0.03 µg/mL
MIC50 [17]: 0.03 µg/mL (≈ 0.0849 µM)

C[C@]1(COc2ccc(N3CCC(Oc4ccc(OC(F)(F)F)cc4)CC3)cc2)Cn2cc([N+](=O)[O-])nc2O1 [DELAMANID]
MIC50 [7]: 0.006 µg/mL (≈ 0.0112 µM)

CN[C@@H]1[C@H](O)[C@H](NC)[C@H]2O[C@@]3(O)[C@H](NC(=O)Cc4ccc(Cl)cn4)C[C@@H](C)C[C@H]3O[C@@H]2[C@H]1O
MIC50 [1]: 1.6 µg/mL (≈ 3.3 µM)

CC(=O)N1/C(=C/c2cccc(-c3ccccc3)c2)C(=O)c2ccccc21
MIC99 [5]: 0.69 µg/mL (≈ 2.03 µM)

O=[N+]([O-])c1cn2c(n1)OC[C@@H](OCc1ccc(-c3ccc(C(F)(F)F)cc3)nc1)C2
MIC50 [7]: < 0.015 µg/mL

CC(=O)N1/C(=C/c2ccc(-c3ccsc3)cc2)C(=O)c2ccccc21
MIC99 [5]: 0.16 µg/mL (≈ 0.463 µM)

CCN(CC)CCOc1c(C(=O)OC)c2c3c(oc2c2ccccc12)C(=O)c1ccccc1C3=O
MIC50 [20]: 0.19 µg/mL (≈ 0.403 µM)

CCc1nc2ccc(Cl)cn2c1C(=O)NCc1ccc(N2CCC(c3ccc(OC(F)(F)F)cc3)CC2)cc1 [TELACEBEC]
MIC90 [21]: 0.0024 µg/mL (≈ 0.00431 µM)

c1cc2cc(-c3ccc4cc(C5=NCCN5)[nH]c4c3)[nH]c2cc1C1=NCCN1
MIC50 [4]: 0.08 µg/mL (≈ 0.217 µM)

CC(C)=CCC/C(C)=C/CNCCNC1C2CC3CC(C2)CC1C3 (configuration not stated) [SQ109]
MIC50 [1]: 0.12 µg/mL (≈ 0.363 µM)

OC1CCN(C2CCN(Cc3ccccc3)CC2)CC1
MIC90 [2]: > 10 µg/mL

O=C(Oc1ccccc1)c1ccsc1NC(=O)C1CCCN1 (configuration not stated)
MIC50 [13]: 2.4 µg/mL (≈ 7.59 µM)

CCCCCCCCCC(=O)C[C@@H]1[C@H](OC)C([C@@H](O[C@H]2OC(C(=O)N[C@H]3CCC[C@@H](C)NC3=O)=C[C@H](O)[C@@H]2O)C(N)=O)O[C@H]1n1ccc(=O)[nH]c1=O (some centres not stated)
MIC50 [6]: 1 µg/mL (≈ 1.36 µM)

c1ccc(CC2CCN(CC3CCN(CC45CC6CC(CC(C6)C4)C5)CC3)CC2)cc1
MIC90 [2]: 7 µg/mL (≈ 16.6 µM)

OC1CCN(CC2CCN(CC34CC5CC(CC(C5)C3)C4)CC2)CC1
MIC90 [2]: 4 µg/mL (≈ 11.5 µM)

CCOC(=O)NC(=O)c1cc(F)sc1NC(=O)c1nc2ccccc2s1
IC50 [14]: 150 nM
